Patent US6936585B2, “Corticotropin releasing factor 2 receptor agonists” (priority 2002, dated 2005)
Ends that are not written are not given here. Peptide text beside a SMILES is read from it.

How the values were obtained:
CRF1R = target: T1, CRF1R (Homo sapiens, UniProt P34998); experiment: CRF1R agonist activation (EC50 / Emax), called comparative CRF binding; type: cell-based; conditions: for Emax: read-out: CRF1R Emax; for EC50: read-out: CRF1R EC50
T1 sequence (P34998 24-415): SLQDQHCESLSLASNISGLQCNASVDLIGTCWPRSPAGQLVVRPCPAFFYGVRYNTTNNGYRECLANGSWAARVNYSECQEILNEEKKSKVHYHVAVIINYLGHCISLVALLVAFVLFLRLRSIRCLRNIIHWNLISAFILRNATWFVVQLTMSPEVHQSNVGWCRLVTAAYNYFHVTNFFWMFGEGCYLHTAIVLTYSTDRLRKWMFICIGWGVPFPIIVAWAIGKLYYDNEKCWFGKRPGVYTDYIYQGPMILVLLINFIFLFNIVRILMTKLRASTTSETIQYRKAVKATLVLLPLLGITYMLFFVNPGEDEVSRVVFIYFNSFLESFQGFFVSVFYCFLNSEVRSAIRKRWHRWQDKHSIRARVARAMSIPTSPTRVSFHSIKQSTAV
Outline: (§1)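 Peptides are tested on cells bearing CRF1R or CRF2R, full length or as ligand-binding-domain constructs coupled to reporters or G proteins. Activation is scored by cAMP rise, measured in lysates or by CRE-reporter output, against vehicle control.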

CRF2R = target: T2, CRF2R (Homo sapiens, UniProt Q13324); experiment: CRF2R agonist activation (EC50 / Emax), called comparative CRF binding; type: cell-based; conditions: for Emax: read-out: CRF2R Emax; for EC50: read-out: CRF2R EC50
T2 sequence (Q13324 1-411): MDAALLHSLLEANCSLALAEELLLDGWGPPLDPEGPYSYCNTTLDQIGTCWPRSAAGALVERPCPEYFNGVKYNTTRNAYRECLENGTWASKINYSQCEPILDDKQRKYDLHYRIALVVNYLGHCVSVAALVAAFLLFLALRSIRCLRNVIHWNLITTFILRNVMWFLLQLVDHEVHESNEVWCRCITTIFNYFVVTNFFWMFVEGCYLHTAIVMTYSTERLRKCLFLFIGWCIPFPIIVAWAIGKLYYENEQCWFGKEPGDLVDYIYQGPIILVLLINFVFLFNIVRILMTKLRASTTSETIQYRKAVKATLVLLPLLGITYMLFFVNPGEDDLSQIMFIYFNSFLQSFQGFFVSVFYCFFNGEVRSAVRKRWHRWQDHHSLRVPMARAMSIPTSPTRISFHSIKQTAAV
Outline: as §1

Compound	Emax (CRF1R) [%]	Emax (CRF2R) [%]	EC50 (CRF1R) [nM]	EC50 (CRF2R) [nM]
CC[C@H](C)[C@H](N)C(=O)N[C@H](C(=O)N[C@@H](CC(C)C)C(=O)N[C@@H](CO)C(=O)N[C@@H](CC(C)C)C(=O)N[C@@H](CC(=O)O)C(=O)N[C@H](C(=O)N1CCC[C@H]1C(=O)N[C@H](C(=O)NCC(=O)N[C@@H](CC(C)C)C(=O)N[C@@H](CC(C)C)C(=O)N[C@@H](CCC(N)=O)C(=O)N[C@H](C(=O)N[C@@H](CC(C)C)C(=O)N[C@@H](CC(C)C)C(=O)N[C@@H](CCC(=O)O)C(=O)N[C@@H](CCC(N)=O)C(=O)N[C@@H](CCCNC(=N)N)C(=O)N[C@@H](C)C(=O)N[C@@H](CCCNC(=N)N)C(=O)N[C@@H](C)C(=O)N[C@@H](C)C(=O)N[C@@H](CCCNC(=N)N)C(=O)N[C@@H](CCC(=O)O)C(=O)N[C@@H](CCC(N)=O)C(=O)N[C@@H](C)C(=O)N[C@H](C(=O)N[C@H](C(=O)N[C@@H](CC(N)=O)C(=O)N[C@@H](C)C(=O)N[C@@H](CCCNC(=N)N)C(=O)N[C@H](C(=O)N[C@@H](CC(C)C)C(=O)N[C@@H](C)C(=O)N[C@@H](CCCNC(=N)N)C(=O)N[C@H](C(N)=O)C(C)C)[C@@H](C)CC)[C@@H](C)O)[C@@H](C)O)[C@@H](C)CC)[C@@H](C)CC)C(C)C)C(C)C [compound 137] (H-IVLSLDVPIGLLQILLEQRARAAREQATTNARILARV-NH2; N-terminus assumed)	4	100		
CC[C@H](C)[C@H](NC(=O)[C@H](C)NC(=O)[C@H](CC(N)=O)NC(=O)[C@H](CCC(N)=O)NC(=O)[C@H](CCC(=O)O)NC(=O)[C@H](C)NC(=O)[C@H](CCCNC(=N)N)NC(=O)[C@H](CCC(=O)O)NC(=O)[C@H](CCCNC(=N)N)NC(=O)[C@H](CCC(N)=O)NC(=O)[C@H](CO)NC(=O)[C@H](CCC(N)=O)NC(=O)[C@@H](NC(=O)[C@H](CCCNC(=N)N)NC(=O)[C@H](C)NC(=O)[C@H](CC(C)C)NC(=O)[C@H](CCC(=O)O)NC(=O)[C@H](CC(C)C)NC(=O)[C@H](CC(C)C)NC(=O)[C@@H](NC(=O)[C@H](CCCNC(=N)N)NC(=O)[C@H](CC(C)C)NC(=O)[C@H](CC(C)C)NC(=O)[C@H](CC(C)C)NC(=O)[C@H](CC(C)C)NC(=O)[C@@H]1CCCN1C(=O)[C@H](CC(C)C)NC(=O)[C@H](CC(=O)O)NC(=O)[C@@H](NC(=O)[C@H](CO)NC(=O)[C@H](CC(C)C)NC(=O)[C@H](CO)NC(=O)[C@@H]1CCCN1C(=O)[C@H](CC(N)=O)NC(=O)[C@@H](N)CC(=O)O)[C@@H](C)CC)[C@@H](C)O)[C@@H](C)O)C(=O)N[C@H](C(=O)N[C@@H](Cc1ccccc1)C(=O)N[C@@H](C)C(=O)N[C@@H](CO)C(=O)N[C@H](C(N)=O)C(C)C)[C@@H](C)CC [compound 174] (H-DNPSLSIDLPLLLLRTLLELARTQSQRERAEQNAIIFASV-NH2; N-terminus assumed)	29.1	97.2		
NDDPPISIDLPFQLLRNMIEMARIENEREQAGLNAKYLAEV-NH2 [compound 258]	23.6	49.3		
CC[C@H](C)[C@H](NC(=O)[C@H](C)NC(=O)[C@H](CC(N)=O)NC(=O)[C@H](CCC(N)=O)NC(=O)[C@H](CCC(=O)O)NC(=O)[C@H](C)NC(=O)[C@H](CCCNC(=N)N)NC(=O)[C@H](CCC(=O)O)NC(=O)[C@H](CCCNC(=N)N)NC(=O)[C@H](CCC(N)=O)NC(=O)[C@H](CO)NC(=O)[C@H](CCC(N)=O)NC(=O)[C@@H](NC(=O)[C@H](CCCNC(=N)N)NC(=O)[C@H](C)NC(=O)[C@H](CC(C)C)NC(=O)[C@H](CCC(=O)O)NC(=O)[C@H](CC(C)C)NC(=O)[C@H](CC(C)C)NC(=O)[C@@H](NC(=O)[C@H](CCCNC(=N)N)NC(=O)[C@H](CC(C)C)NC(=O)[C@H](CC(C)C)NC(=O)[C@H](CCC(N)=O)NC(=O)[C@H](Cc1ccccc1)NC(=O)[C@@H]1CCCN1C(=O)[C@H](CC(C)C)NC(=O)[C@H](CC(=O)O)NC(=O)[C@@H](NC(=O)[C@H](CO)NC(=O)[C@H](CC(C)C)NC(=O)[C@H](CO)NC(=O)[C@@H]1CCCN1C(=O)[C@H](CC(N)=O)NC(=O)[C@@H](N)CC(=O)O)[C@@H](C)CC)[C@@H](C)O)[C@@H](C)O)C(=O)N[C@H](C(=O)N[C@@H](Cc1ccccc1)C(=O)N[C@@H](C)C(=O)N[C@@H](CO)C(=O)N[C@H](C(N)=O)C(C)C)[C@@H](C)CC [compound 182] (H-DNPSLSIDLPFQLLRTLLELARTQSQRERAEQNAIIFASV-NH2; N-terminus assumed)	89.7	91.4	409	7.21
CC[C@H](C)[C@H](NC(=O)[C@H](CCCNC(=N)N)NC(=O)[C@H](C)NC(=O)[C@H](CC(N)=O)NC(=O)[C@H](CCC(N)=O)NC(=O)[C@H](CCC(=O)O)NC(=O)[C@H](C)NC(=O)[C@H](CCCNC(=N)N)NC(=O)[C@H](CCC(=O)O)NC(=O)[C@H](CCCNC(=N)N)NC(=O)[C@H](CCC(N)=O)NC(=O)[C@H](CO)NC(=O)[C@H](CCC(N)=O)NC(=O)[C@@H](NC(=O)[C@H](CCCCN)NC(=O)[C@H](CCC(=O)O)NC(=O)[C@H](CC(C)C)NC(=O)[C@H](CCC(=O)O)NC(=O)[C@H](CC(C)C)NC(=O)[C@H](CC(C)C)NC(=O)[C@@H](NC(=O)[C@H](CCCNC(=N)N)NC(=O)[C@H](CC(C)C)NC(=O)[C@H](CC(C)C)NC(=O)[C@H](CC(C)C)NC(=O)[C@H](CC(C)C)NC(=O)[C@@H]1CCCN1C(=O)[C@@H](NC(=O)[C@H](CC(=O)O)NC(=O)[C@@H](NC(=O)[C@H](CO)NC(=O)[C@H](CC(C)C)NC(=O)[C@H](CO)NC(=O)[C@@H]1CCCN1C(=O)[C@H](CC(N)=O)NC(=O)[C@@H](N)CC(=O)O)[C@@H](C)CC)C(C)C)[C@@H](C)O)[C@@H](C)O)C(=O)N[C@@H](Cc1ccccc1)C(=O)N[C@@H](C)C(=O)N[C@@H](CCCNC(=N)N)C(=O)N[C@H](C(N)=O)C(C)C [compound 384] (H-DNPSLSIDVPLLLLRTLLELEKTQSQRERAEQNARIFARV-NH2; N-terminus assumed)	70.3	97.3		
CC[C@H](C)[C@H](N)C(=O)N[C@H](C(=O)N[C@@H](CC(C)C)C(=O)N[C@@H](CO)C(=O)N[C@@H](CC(C)C)C(=O)N[C@@H](CC(=O)O)C(=O)N[C@H](C(=O)N1CCC[C@H]1C(=O)N[C@H](C(=O)NCC(=O)N[C@@H](CC(C)C)C(=O)N[C@@H](CC(C)C)C(=O)N[C@@H](CCC(N)=O)C(=O)N[C@H](C(=O)N[C@@H](CC(C)C)C(=O)N[C@@H](CC(C)C)C(=O)N[C@@H](CCC(=O)O)C(=O)N[C@@H](CCC(N)=O)C(=O)N[C@H](C(=O)N[C@@H](CCCNC(=N)N)C(=O)N[C@@H](C)C(=O)N[C@@H](CC(=O)O)C(=O)N[C@@H](C)C(=O)N[C@@H](C)C(=O)N[C@@H](CCCNC(=N)N)C(=O)N[C@@H](CCC(=O)O)C(=O)N[C@@H](CCC(N)=O)C(=O)N[C@@H](C)C(=O)N[C@H](C(=O)N[C@H](C(=O)N[C@@H](CC(N)=O)C(=O)N[C@@H](C)C(=O)N[C@@H](CCCNC(=N)N)C(=O)N[C@H](C(=O)N[C@@H](CC(C)C)C(=O)N[C@@H](C)C(=O)N[C@@H](CCCNC(=N)N)C(=O)N[C@H](C(N)=O)C(C)C)[C@@H](C)CC)[C@@H](C)O)[C@@H](C)O)[C@@H](C)O)[C@@H](C)CC)[C@@H](C)CC)C(C)C)C(C)C [compound 126] (H-IVLSLDVPIGLLQILLEQTRADAAREQATTNARILARV-NH2; N-terminus assumed)	7	91	> 100	13
SEEPPISLDVPIGLLQEVLEMARAEQLAQQAHSNRKLMEII-NH2 [compound 162]	11	7		
CC[C@H](C)[C@H](N)C(=O)N[C@H](C(=O)N[C@@H](CC(C)C)C(=O)N[C@@H](CO)C(=O)N[C@@H](CC(C)C)C(=O)N[C@@H](CC(=O)O)C(=O)N[C@H](C(=O)N1CCC[C@H]1C(=O)N[C@H](C(=O)NCC(=O)N[C@@H](CC(C)C)C(=O)N[C@@H](CC(C)C)C(=O)N[C@@H](CCC(N)=O)C(=O)N[C@H](C(=O)N[C@@H](CC(C)C)C(=O)N[C@@H](CC(C)C)C(=O)N[C@@H](CCC(=O)O)C(=O)N[C@@H](CCC(N)=O)C(=O)N[C@H](C(=O)N[C@@H](CCCCN)C(=O)N[C@@H](C)C(=O)N[C@@H](CC(N)=O)C(=O)N[C@@H](C)C(=O)N[C@@H](C)C(=O)N[C@@H](CCCNC(=N)N)C(=O)N[C@@H](CCC(=O)O)C(=O)N[C@@H](CCC(N)=O)C(=O)N[C@@H](C)C(=O)N[C@H](C(=O)N[C@H](C(=O)N[C@H](C(=O)N[C@@H](C)C(=O)N[C@@H](CCCNC(=N)N)C(=O)N[C@H](C(=O)N[C@@H](CC(C)C)C(=O)N[C@@H](C)C(=O)N[C@@H](CCCNC(=N)N)C(=O)N[C@H](C(N)=O)C(C)C)[C@@H](C)CC)C(C)C)[C@@H](C)O)[C@@H](C)O)[C@@H](C)O)[C@@H](C)CC)[C@@H](C)CC)C(C)C)C(C)C [compound 116] (H-IVLSLDVPIGLLQILLEQTKANAAREQATTVARILARV-NH2)	4.8	26.4		
NDDPPISIDLPTYLLRNMIEMARIENEREQAGLNAKYLAEV-NH2 [compound 266]	4.45	19.4		
